Test results taken from patent US20080044805A1, “Biopolymer-Dye Complex and Use as a Bioassay” (STC.UNM, priority 2006, published 2008).

Legend:
[1] = Water solubility of the cyanine dye; type: physicochemical
From the text: For fluorescence of the polymers in solution, J-aggregate fluorescence became prominent for polymers having at least 33 cationic polymer repeat units. The fluorescence of the polymer is subject to very strong “super-quenching” by oppositely charged electron acceptors and energy-transfer quenchers that equals or exceeds that observed for conjugated polyelectrolytes by the same kind of quenchers. […] In exemplary embodiments, a cyanine dye of formula I, below, is used.

[2] = Hyaluronidase activity, scaffold destruction fluorescent assay; type: biochemical; conditions: hyaluronic acid substrate; estimated from maximal fluorescence of unreacted mix
Description: Hyaluronidase enzyme (11.3 U of E.C. 3.2.1.35) was mixed with 8 μg of hyaluronic acid in a total volume of 500 μL at 25° C. After 0, 20, 40, 60, 80, 100, 120 and 140 minutes, a portion of the reaction mixture was diluted into 20 μM concentrations of cyanine dye of Formula I dissolved in 20% methanol-80% water mixture dispensed into the wells of a 96 well microplate (Optiplate™-96, Perkin Elmer Life Sciences, Boston, Mass.) to a total volume of 275 μL. Sixty minutes after adding the reaction mixture to the cyanine solution, the fluorescence was measured using a Mithras LB 940 microplate spectrofluorometer (Berthold Instruments, Oak Ridge, Tenn.). The enzymatic reaction volume that was added to the cyanine dye solution represented approximately 364 ng of intact hyaluronic acid that might be present in the complete absence of enzymatic hydrolysis. This amount of hyaluronic was equivalent to the mid-point in the rise of the hyaluronic titration curve in FIG. 23. […] Hyaluronic acid in amounts of 0, 200, 400, 600, 800 and 1000 ng respectively were mixed with 1 U of hyaluronidase in a total volume of 100 μL. […] Based upon maximal fluorescence from reactions in which the enzyme and substrate were mixed but not allowed to react, it was estimated that hyaluronidase activity level reached a plateau between 60 to 80 minutes, representing 50% hydrolysis of the substrate.

Row | Compound | water solubility [1] | hydrolysis of the substrate at plateau [2] [%]
1 | CCN1C(=Cc2sc3ccc(Cl)cc3[n+]2CC)Sc2ccc(Cl)cc21.[I-] [cyanine dye of Formula I] | moderate | 
2 | hyaluronidase |  | 50
